This experiment addresses Granzyme B (human lymphocytes) (Homo sapiens (Human), UniProt P10144). Nature of the experiment: human Granzyme B biochemical assay. To be noted: Granzyme B (human lymphocytes) 5 nM, substrate Ac-IETD-AFC 200 μM, Cpd incubation with enzyme 30 mins, 22° C., read time 60 mins; read-out: IC50. The method in brief: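 Fluorogenic Ac-IETD-AFC cleavage (Ex 400/Em 505 nm) read after 60 min at 22 °C, following 30 min, 22 °C enzyme–compound pre-incubation. Working stocks: enzyme 10 nM in 0.1% BSA buffer, substrate 800 µM, compound 8 points, 3.16-fold from 40 µM. Controls set 0% (DMSO) and 100% (standard inhibitor) inhibition; IC50 fitted.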

The structures appear in SMILES notation. Some results are limits rather than exact numbers.

Sequence of Granzyme B (human lymphocytes) (P10144 21-247): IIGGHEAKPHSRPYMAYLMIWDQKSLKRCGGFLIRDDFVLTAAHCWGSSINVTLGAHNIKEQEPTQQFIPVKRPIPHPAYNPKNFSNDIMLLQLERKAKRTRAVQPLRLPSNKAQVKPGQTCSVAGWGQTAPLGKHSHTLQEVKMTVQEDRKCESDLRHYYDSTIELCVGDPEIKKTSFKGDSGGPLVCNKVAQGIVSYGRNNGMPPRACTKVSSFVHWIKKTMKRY

The IC50 is the concentration that inhibits the measured activity by half. Regarding `CC[C@H](C)[C@H](NC(=O)c1cccc(OC)c1)C(=O)N[C@H]1CCc2cccc3c2N(C1=O)[C@H](C(=O)NCc1c[nH]nn1)C3` [Compound C061, (2S,5S)-5-[(2S,3S)-2-(3-Methoxy-benzoylamino)-3-methyl-pentanoylamino]-4-oxo-1,2,4,5,6,7-hexahydro-azepino[3,2,1-hi]indole-2-carboxylic acid(1H-[1,2,3]triazol-4-ylmethyl)-amide], the IC50 lay within 1 to 300 nM.
As to `CC[C@H](C)[C@H](NC(=O)COCCF)C(=O)N[C@H]1CCc2cccc3c2N(C1=O)[C@H](C(=O)NCc1cn[nH]c1)C3` [Compound C116], the IC50 is more than 5000 nM.
To `CC[C@H](C)[C@H](NC(=O)COCCF)C(=O)N[C@H]1CNc2cccc3c2N(C1=O)[C@H](C(=O)NCc1c[nH]nn1)C3` [Compound C143, (3S,6S)-3-{(2S,3S)-2-[2-(2-Fluoro-ethoxy)-acetylamino]-3-methyl-pentanoylamino}-4-oxo-1,2,3,4,6,7-hexahydro-[1,4]diazepino[3,2,1-hi]indole-6-carboxylic acid (1H-[1,2,3]triazol-4-ylmethyl)-amide] belongs 1 to 300 nM; to `CCC(CC)[C@H](NC(C)=O)C(=O)N[C@H]1CCc2cccc3c2N(C1=O)[C@H](C(=O)NCc1c[nH]nn1)C3` [Compound C074, (2S,5S)-5-((S)-2-Acetylamino-3-ethyl-pentanoylamino)-4-oxo-1,2,4,5,6,7-hexahydro-azepino[3,2,1-hi]indole-2-carboxylic acid (1H-[1,2,3]triazol-4-ylmethyl)-amide], 1 to 300 nM; to `CC[C@H](C)[C@H](NC(=O)COCCF)C(=O)N[C@H]1CCc2cccc3c2N(C1=O)[C@H](C(=O)NCc1ccccc1C)C3` [Compound C127, (2S,5S)-5-{(2S,3S)-2-[2-(2-Fluoro-ethoxy)-acetylamino]-3-methyl-pentanoylamino}-4-oxo-1,2,4,5,6,7-hexahydro-azepino[3,2,1-hi]indole-2-carboxylic acid 2-methyl-benzylamide], more than 5000 nM.
With `CC(=O)N[C@H](C(=O)N[C@H]1CCc2cccc3c2N(C1=O)[C@H](C(=O)N[C@@H](C)C(=O)O)C3)C(C)C` [Compound C089, (S)-2-{[(2S,5S)-5-((S)-2-Acetylamino-3-methyl-butyrylamino)-4-oxo-1,2,4,5,6,7-hexahydro-azepino[3,2,1-hi]indole-2-carbonyl]-amino}-propionicacid], the half-inhibitory concentration (IC50) is more than 5000 nM.
Take `O=C(Cc1csc2ccccc12)N[C@@H](Cc1ccc(F)cc1)C(=O)N[C@H]1CCc2cccc3c2N(C1=O)[C@H](C(=O)NCc1c[nH]nn1)C3` [Compound C011, (2S,5S)-5-[(S)-2-(2-Benzo[b]thiophen-3-yl-acetylamino)-3-(4fluoro-phenyl)-propionylamino]-4-oxo-1,2,4,5,6,7-hexahydro-azepino[,3,2,1-hi]indole-2-carboxylic acid (1H-[1,2,3]triazol-4-ylmethyl)-amide]: the IC50 is more than 5000 nM.
To `CC[C@H](C)[C@H](NC(=O)COCCF)C(=O)N[C@H]1CCc2cccc3c2N(C1=O)[C@H](C(=O)NCc1cccs1)C3` [Compound C106, (2S,5S)-5-{(2S,3S)-2-[2-(2-Fluoro-ethoxy)-acetylamino]-3-methyl-pentanoylamino}-4-oxo-1,2,4,5,6,7-hexahydro-azepino[3,2,1-hi]indole-2-carboxylic acid (thiophen-2-ylmethyl)-amide] belongs more than 5000 nM.
In the case of `CC(C)[C@H](NC(=O)c1ccccc1)C(=O)N[C@H]1COc2cccc3c2N(C1=O)[C@H](C(=O)NCc1c[nH]nn1)C3` [Compound C100, (1S,8S)-8-((S)-2-Benzoylamino-3-methyl-butyrylamino)-9-oxo-1,2,8,9-tetrahydro-7H-6-oxa-9a-aza-benzo[cd]azulene-1-carboxylic acid (1H-[1,2,3,]triazol-4-ylmethyl)-amide], the IC50 is 1 to 300 nM.
Regarding `O=C(Cc1csc2ccccc12)N[C@@H](CO)C(=O)N[C@H]1CCc2cccc3c2N(C1=O)[C@H](C(=O)NCc1c[nH]nn1)C3` [Compound C007, (2S,5S)-5-[(S)-2-(2-Benzo[b]thiophen-3-yl-acetylamino)-3-hydroxy-propionylamino]-4-oxo-1,2,4,5,6,7-hexahydro-azepino[3,2,1-hi]indole-2-carboxylic acid (1H-[1,2,3]triazol-4-ylmethyl)-amide], the half-maximal inhibitory concentration (IC50) was more than 5000 nM.
On to `CC[C@H](C)[C@H](NC(=O)COCCF)C(=O)N[C@H]1CCc2cccc3c2N(C1=O)[C@H](C(=O)NCc1cccc(Cl)c1)C3` [Compound C131, (2S,5S)-5-{(2S,3S)-2-[2-(2-Fluoro-ethoxy)-acetylamino]-3-methyl-pentanoylamino}-4-oxo-1,2,4,5,6,7-hexahydro-azepino[3,2,1-hi]indole-2-carboxylic acid 3-chloro-benzylamide], for which the IC50 is more than 5000 nM.
To `CC[C@H](C)[C@H](NC(=O)Cc1csc2ccccc12)C(=O)N[C@H]1COc2cccc3c2N(C1=O)[C@H](C(=O)NCc1c[nH]nn1)C3` [Compound C146, (1S,8S)-8-[(2S,3S)-2-(2-Benzo[b]thiophen-3-yl-acetylamino)-3-methyl-pentanoylamino]-9-oxo-1,2,8,9-tetrahydro-7H-6-oxa-9a-aza-benzo[cd]azulene-1-carboxylic acid (1H-[1,2,3]triazol-4-ylmethyl)-amide] belongs 1 to 300 nM.
In the case of `CC[C@H](C)[C@H](NC(=O)c1ccccc1OC)C(=O)N[C@H]1CCc2cccc3c2N(C1=O)[C@H](C(=O)NCc1c[nH]nn1)C3` [Compound C060, (2S,5S)-5-[(2S,3S)-2-(2-Methoxy-benzoylamino)-3-methyl-pentanoylamino]-4-oxo-1,2,4,5,6,7-hexahydro-azepino[3,2,1-hi]indole-2-carboxylic acid(1H-[1,2,3]triazol-4-ylmethyl)-amide], the IC50 is 1 to 300 nM.
Next, `CC[C@H](C)[C@H](NC(=O)c1cccnc1)C(=O)N[C@H]1CCc2cccc3c2N(C1=O)[C@H](C(=O)NCc1c[nH]nn1)C3` [Compound C067, (2S,5S)-5-{(2S,3S)-3-Methyl-2-[(pyridine-3-carbonyl)-amino]-pentanoylamino}-4-oxo-1,2,4,5,6,7-hexahydro-azepino[3,2,1-hi]indole-2-carboxylicacid (1H-[1,2,3]triazol-4-ylmethyl)-amide]: 1 to 300 nM; `CC(=O)NCC(=O)N[C@H]1CCc2cccc3c2N(C1=O)[C@H](C(=O)NCc1c[nH]nn1)C3` [Compound C023, (2S,5S)-5-(2-Acetylamino-acetylamino)-4-oxo-1,2,4,5,6,7-hexahydro-azepino[3,2,1-hi]indole-2-carboxylic acid (1H-[1,2,3]triazol-4-ylmethyl)-amide]: more than 5000 nM; `COc1ccc(C(=O)N[C@H](C(=O)N[C@H]2CCc3cccc4c3N(C2=O)[C@H](C(=O)NCc2c[nH]nn2)C4)C(C)C)cc1` [Compound C065, (2S,5S)-5-[(S)-2-(4-Methoxy-benzoylamino)-3-methyl-butyrylamino]-4-oxo-1,2,4,5,6,7-hexahydro-azepino[3,2,1-hi]indole-2-carboxylic acid (1H-[1,2,3]triazol-4-ylmethyl)-amide]: 1 to 300 nM.
To `O=C(N[C@H](C(=O)N[C@H]1CCc2cccc3c2N(C1=O)[C@H](C(=O)NCc1c[nH]nn1)C3)C1CCCCC1)c1ccccc1` [Compound C079, (2S,5S)-5-((S)-2-Benzoylamino-2-cyclohexyl-acetylamino)-4-oxo-1,2,4,5,6,7-hexahydro-azepino[3,2,1-hi]indole-2-carboxylic acid (1H-[1,2,3]triazol-4-ylmethyl)-amide] belongs 1000 to 5000 nM.
With `CC[C@H](C)[C@H](NC(=O)COCCF)C(=O)N[C@H]1CCc2cccc3c2N(C1=O)[C@H](C(=O)NCc1ccsc1)C3` [Compound C109], the half-maximal inhibitory concentration (IC50) was more than 5000 nM.
To `COc1cccc(C(=O)N[C@H](C(=O)N[C@H]2CCc3cccc4c3N(C2=O)[C@H](C(=O)NCc2c[nH]nn2)C4)C(C)C)c1` [Compound C064, (2S,SS)-5-[(S)-2-(3-Methoxy-benzoylamino)-3-methyl-butyrylamino]-4-oxo-1,2,4,5,6,7-hexahydro-azepino[3,2,1-hi]indole-2-carboxylic acid (1H-[1,2,3]triazol-4-ylmethyl)-amide] belongs 1 to 300 nM; to `CC(=O)N[C@@H](CC(C)C)C(=O)N[C@H]1CCc2cccc3c2N(C1=O)[C@H](C(=O)NCc1c[nH]nn1)C3` [Compound C027, (2S,5S)-5-((S)-2-Acetylamino-4-methyl-pentanoylamino)-4-oxo-1,2,4,5,6,7-hexahydro-azepino[3,2,1-hi]indole-2-carboxylic acid (1H-[1,2,3]triazol-4-ylmethyl)-amide], 1000 to 5000 nM.
To `O=C(Cc1ccccc1)N[C@@H](Cc1ccc(O)cc1)C(=O)N[C@H]1CCc2cccc3c2N(C1=O)[C@H](C(=O)NCc1c[nH]nn1)C3` [Compound C021, (2S,5S)-5-[(S)-3-(4-Hydroxy-phenyl)-2-phenylacetylamino-propionylamino]-4-oxo-1,2,4,5,6,7-hexahydro-azepino[3,2,1-hi]indole-2-carboxylic acid (1H-[1,2,3]triazol-4-ylmethyl)-amide] belongs 1000 to 5000 nM; to `CC[C@H](C)[C@H](NC(=O)Cc1cc2ccccc2s1)C(=O)N[C@H]1CCc2cccc3c2N(C1=O)[C@H](C(=O)NCc1c[nH]nn1)C3` [Compound C158, (2S,5S)-5-[(2S,3S)-2-(2-Benzo[b]thiophen-2-yl-acetylamino)-3-methyl-pentanoylamino]-4-oxo-1,2,4,5,6,7-hexahydro-azepino[3,2,1-hi]indole-2-carboxylic acid (1H-[1,2,3]triazol-4-ylmethyl)-amide], 1 to 300 nM; to `CC(=O)N[C@H](C(=O)N[C@H]1COc2cccc3c2N(C1=O)[C@H](C(=O)NCc1c[nH]nn1)C3)C(C)C` [Compound C101, (1S,8S)-8-((S)-2-Acetylamino-3-methyl-butyrylamino)-9-oxo-1,2,8,9-tetrahydro-7H-6-oxa-9a-aza-benzo[cd]azulene-1-carboxylic acid (1H-[1,2,3]triazol-4-ylmethyl)-amide], 1 to 300 nM.

(Values after patent publication US11667645B2, “Granzyme B directed imaging and therapy” (CytoSite Biopharma Inc., priority 2018, dated 2023).)
